Test [1] has as its target monomeric Griffithsin (mGRFT) (Griffithsia sp., UniProt P84801, INS16GS). As to the kind of experiment: Biolayer interferometry (BLI) binding to mGRFT. As to conditions: for Kd: mGRFT as the analyte, 25 °C. As for the experimental part:
(§1) All BLI experiments were performed at 25 °C on an Octet R2 instrument using SA or NiNTA biosensors. Ligand was loaded onto the biosensors followed by a baseline then association and dissociation phase. Biosensors were regenerated and this process was repeated for varying concentrations of analyte. Data was processed in Octet analysis studio 13.0. The samples were double referenced, first to a reference sensor then to a well containing no analyte. The trace responses were aligned to the average of the final 5s of the baseline and inter-step corrected to the dissociation step. A Savitzky-Golay filter was applied to reduce high frequency noise. The association and dissociation phases were fit globally to a 1:1 single exponential binding model. All conditions were run in triplicate.

The subject of test [2] is mGRFT binding to biotinylated Man-9. As to the kind of experiment: BLI competition assay against immobilized Man-9. On the set-up: species or system Griffithsia. As to conditions: Man-9 immobilized. The method, then: To further probe this ultra-high-affinity interaction, we performed a BLI competition assay to determine whether the [2DEG]^2+ complex could outcompete mGRFT’s natural ligand, Man-9. Biotinylated Man-9 was immobilized on the BLI biosensor tip, which was then dipped into solutions containing mGRFT that was pre-incubated with varying concentrations of [2DEG]^2+. […] More broadly, this finding highlights the power of rational synthetic design to generate glycomimetics capable of outperforming their biological counterparts.
as §1

Test [3] deals with GRFT. On the set-up: method as in PMID 17340634. As to conditions: free mannose; cited from earlier work.
The target in test [4] is mGRFT (Griffithsia sp., UniProt P84801, INS16GS). The test can be described thus: Isothermal titration calorimetry (ITC) binding to mGRFT. As to conditions: two-site model. (In general: ITC needs no label: the signal is the heat of the interaction.)
Sequence of mGRFT (P84801 whole entry, stated change not applied): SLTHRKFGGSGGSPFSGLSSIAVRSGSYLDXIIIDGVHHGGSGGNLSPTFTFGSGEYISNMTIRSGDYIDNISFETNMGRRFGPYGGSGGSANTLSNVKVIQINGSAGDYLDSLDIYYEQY

We go through five compounds from paper doi:10.64898/2025.12.17.694979, “Tunable multivalent Fe(II)-based glycoassemblies as mimetics for native high-mannose glycans” (bioRxiv, 2025).

Sequence of monomeric Griffithsin (mGRFT) (P84801 whole entry, stated change not applied): as above

A word on the Kd: it is the free concentration of one partner at which half of the binding sites on the other are occupied at equilibrium, for simple one-to-one binding. Take Man-5: binding in test [1] (biotinylated Man-5 as the ligand, kinetic fitting and steady state analysis) was put at a Kd of 40 ± 10 µM.

In the case of `OC[C@H]1O[C@H](O[C@@H]2[C@@H](OCCOCCOc3ccc(/C=N/CCN(CC/N=C/c4ccc(OCCOCCO[C@H]5O[C@H](CO)[C@@H](O)[C@H](O)[C@@H]5O[C@H]5O[C@H](CO)[C@@H](O)[C@H](O)[C@@H]5O)cn4)CC/N=C/c4ccc(OCCOCCO[C@H]5O[C@H](CO)[C@@H](O)[C@H](O)[C@@H]5O[C@H]5O[C@H](CO)[C@@H](O)[C@H](O)[C@@H]5O)cn4)nc3)O[C@H](CO)[C@@H](O)[C@@H]2O)[C@@H](O)[C@@H](O)[C@@H]1O.[Fe+2]` [[2DEG]^2+], in test [1] (1:1 binding model), the dissociation rate kd entry is reported as “no measurable dissociation”. Moreover, the “reduction of BLI response in the association phase” value in test [2] (0.5 molar equivalents of complex pre-incubated with mGRFT) was “approximately 50%”; in test [2] (two molar equivalents of complex pre-incubated with mGRFT) it was “nearly eliminating the response entirely”.

`OC[C@H]1OC(O)[C@@H](O)[C@@H](O)[C@@H]1O` (stereo partly shown) [free mannose, mannose]: in test [3], the Kd is 102 µM.

Regarding Man-9, the Kd in test [1] (biotinylated Man-9 as the ligand) amounted to 0.067 ± 0.001 µM.

Consider `OC[C@H]1O[C@H](OCCOCCOc2ccc(/C=N/CCN(CC/N=C/c3ccc(OCCOCCO[C@H]4O[C@H](CO)[C@@H](O)[C@H](O)[C@@H]4O)cn3)CC/N=C/c3ccc(OCCOCCO[C@H]4O[C@H](CO)[C@@H](O)[C@H](O)[C@@H]4O)cn3)nc2)[C@@H](O)[C@@H](O)[C@@H]1O.[Fe+2]` [[1DEG]^2+, [Fe(DEGman)3][SO4]], for which, in test [4], the “stoichiometry of each interaction” value was “one”.
